The record followed here is patent US20220356163A1, “SMALL MOLECULE INHIBITORS OF Id PROTEINS” (MEMORIAL SLOAN KETTERING CANCER CENTER, priority 2019, published 2022).

One test has as its system MDA-MB-157. Put plainly: MTT assay, MDA-MB-157. Type of test: cell-based. Particulars: Homo sapiens, 24 h, MDA-MB-157, TNBC cell line, read-out: IC50 value after 24 hours of treatment. From the text: (§1) The 4T1 murine mammary tumor cell line and nine breast cancer cell lines representing the major breast cancer subtypes (ER+, HER2+, and TNBC) including MDA-MB-157, MDA-MB-436, MDA-MB-231, MDA-MB-453, MDA-MB-361, BT-474, SK-BR-3, MCF-7 and T47-D will be grown in RPMI or DMEM (Dulbecco's Modified Eagle Medium) media supplemented with 10% FBS (fetal bovine serum), 1% penicillin-streptomycin and 1% L-Glutamine. Patient derived xenograft cell lines BR7, BR11, and IBT will be established directly from breast cancer bone metastases specimens surgically resected from patients with informed consent. BR7 and BR11 specimens will be obtained from ER positive (HER2 negative and PR negative) metastatic breast cancer patients, while the IBT specimen will be obtained from a metastatic, triple negative breast cancer patient. Fresh tumor tissues will be quickly washed with ice cold PBS and minced into about 1-3 mm pieces in MEM medium (without FBS) using sterile razor blades. […] The cells will be treated with either 100 μM DMSO, AGX51, or a compound of the present technology such as AGX-A. The cell morphology and growth will be monitored daily for 1 week by microscopy for changes in morphology or cell death. […] Absorbance will then measured at 570 nm using a plate reader (Synergy 2, BioTek). […]

The subject of a further test is DU145 cells. Put plainly: Prostate cancer cell morphology, growth and death. In kind it is cell-based. The protocol:
Prostate cancer cell lines DU145 and PC3 (in 10% BCS) will be cultured in Ham's F12 (Gibco, Carlsbad, Calif.) medium containing 10% BCS (Hyclone, Logan, Utah) and appropriate antibiotics (pen/strep, fungizaone, and gentamycin (Invitrogen Inc., Carlsbad, Calif.). All cells will be cultured at 37° C. in a fully humidified atmosphere containing 5% CO2.
At 50% confluence, the cells will be treated with either 100 μM DMSO, AGX51, or a compound of the present technology (such as AGX-A). The cell morphology and growth will be monitored daily for 1 week by microscopy for changes in morphology or cell death. Apoptosis will be determined by measuring caspase 3 and caspase 7 activities using the Caspase-Glo 3/7 Assay system from Promega (Madison, Wis.).

The test system of another test is MDA-MB-436. Put plainly: MTT assay, MDA-MB-436. In kind it is cell-based. Particulars: Homo sapiens, 24 h, MDA-MB-436, TNBC cell line, read-out: IC50 value after 24 hours of treatment.
Description: as §1

The subject of another test is MDA-MB-453. Put plainly: MTT assay, MDA-MB-453. The conditions noted are these: MDA-MB-453, HER-2 +ve cell line, 24 hours. Type of test: cell-based. Set-up: scale not given here.
Description: as §1

A further test has as its system 4T1. Put plainly: MTT assay, 4T1. Type of test: cell-based. The conditions noted are these: Mus musculus.
Description: as §1

The test system of the next test is PDX-BR11. Put plainly: MTT assay, PDX-BR11. Type of test: cell-based. Particulars: 24 h, PDX-BR11, PDX cell line, read-out: IC50 value after 24 hours of treatment.
Description: as §1

A further test has as its system HUVEC. The test can be described thus: HUVEC cell branching assay on Matrigel. In kind it is cell-based, human. Particulars: 0-40 μM, 18-20 hours, p<0.05. How it is done:
HUVEC cell branching assays. For branching assays, 350 μL of Matrigel was loaded into each well of a 24-well plate on ice and incubate the plate for 30 minutes at 37° C. to allow the Matrigel to solidify. 80,000 HUVECs in 0.5 mL of EGM-2 medium with the indicated AGX concentration was plated on the solidified Matrigel. At 18-20 hours of incubation when the tube formation was peaked, media from the well was carefully removed and fixed with 10% buffered formalin for 15 minutes. Each well was washed with DPBS. The morphology of capillary like structures was visualized using an inverted microscope and photographed with a digital camera at 10× magnification. To quantify the tube network, Image J with the Angiogenesis Analyzer plugin (public domain Java-based image-processing program, reference: Carpentier G. ImageJ contribution: Angiogenesis Analyzer. ImageJ News. 2012) was installed and the analysis for the number of nodes, junctions, meshes and total branching length was performed as per the instruction. The statistical data analyses were performed using the Wilcoxon test.

The test system of the next test is PDX-BR7. Put plainly: MTT assay, PDX-BR7. The conditions noted are these: 24 h, PDX-BR7, PDX cell line, read-out: IC50 value after 24 hours of treatment. Type of test: cell-based.
Description: as §1

The test system of test [1] is cholangiocarcinoma cells (SNU1079, SNU1196). The test can be described thus: AGX-A cyclodextrin formulations on cholangiocarcinoma cells (24 hour cell viability). In kind it is cell-based. The protocol:
To overcome the issue DMSO posed, investigations were performed to develop a formulation that was compatible with AGX-A as well as well-suited for administration.
Ultimately, a particularly efficacious formulation employing 2-hydroxypropyl-β-cyclodextrin (“HPBCD”) was discovered. […] Representative data is illustrated in FIGS. 25A-25B which provide the results of 24 hour cell viability studies for SNU1079 cells and SNU1196 cells, respectively.

Where two headings read alike, the source gives them in different places.

On to `CCC(=O)N(CCC(c1ccc2c(c1)OCO2)c1ccccc1OC)Cc1ccccc1` (racemic) [AGX51, N-(3-(benzo[d][1,3]dioxol-5-yl)-3-(2-methoxyphenyl)propyl)-N-benzylpropionamide], for which the 50% inhibitory concentration (IC50) turned out to be 22.3 µM with MDA-MB-157; 30.9 µM in the test on MDA-MB-436; 26.7 µM in the test with 4T1 (24 h, 4T1, MTT, read-out: IC50 value after 24 hours of treatment); 26.7 µM with 4T1 (4T1 cells, FIG. 7D, read-out: IC50); 18.6 µM in the test with PDX-BR11; 10.9 µM in the test on PDX-BR7. For the same compound, the DU145 cell death result with DU145 cells (after six days) is on record as “lead to cell death”. For the same compound, the “effect on DU145 cells” value with DU145 cells (after three days) was “pronounced effect on DU145 cells”. For the same compound, the “percentage at 60 μM (IC50 NA)” value with MDA-MB-453 is reported as “NA (60 μM = 57%)”. The “vascular branching (nodes, junctions, meshes, branch length)” value in the test with HUVEC is “significantly impaired in a dose-dependent manner”.
For the compound `COc1ccccc1C(CCNCc1ccccc1)c1ccc(OC(C)C)cc1` (stereo not drawn) [AGX-A, N-benzyl-3-(4-isopropoxyphenyl)-3-(2-methoxyphenyl)propan-1-anine], the “AGX-A activity against cholangiocarcinoma cells” value in test [1] (aqueous solution with HPBCD, 24 hour) is listed as “preserving AGX-A activity”. Also, the “AGX-A induced cell death” value in [1] (formulations with sulfobutylether-β-cyclodextrin (CAPTISOL)) was “neutralized AGX-A induced cell death”.
